Results as given in ChEMBL document CHEMBL1132917, “Discovery of a potent, non-triketone type inhibitor of 4-hydroxyphenylpyruvate dioxygenase” (Bioorg Med Chem Lett, 2000).

Biological target: 4-hydroxyphenylpyruvate dioxygenase (Sus scrofa, UniProt Q02110)
Experiment: In vitro inhibitory activity against HPPD(4-hydroxyphenylpyruvate Dioxygenase) from pig liver using enol borate assay method

Sequence of 4-hydroxyphenylpyruvate dioxygenase (Q02110 whole entry): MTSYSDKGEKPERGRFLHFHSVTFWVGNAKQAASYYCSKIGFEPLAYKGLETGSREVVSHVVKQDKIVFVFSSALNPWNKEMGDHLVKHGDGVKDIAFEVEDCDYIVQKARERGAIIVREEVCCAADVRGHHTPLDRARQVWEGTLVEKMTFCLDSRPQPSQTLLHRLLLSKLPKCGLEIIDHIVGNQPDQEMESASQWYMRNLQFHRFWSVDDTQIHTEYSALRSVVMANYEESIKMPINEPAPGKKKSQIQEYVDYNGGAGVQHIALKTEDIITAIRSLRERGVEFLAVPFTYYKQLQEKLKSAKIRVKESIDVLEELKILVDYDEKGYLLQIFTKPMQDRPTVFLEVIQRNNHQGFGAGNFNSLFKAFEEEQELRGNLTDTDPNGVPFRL

Row | SMILES | IC50
1 | CC(C)C(=O)OC1=CC(=O)CCC1 | 4.16 µM
2 | CC(=O)OC1=CC(=O)CCC1 | 3.62 µM
3 | O=C1C=C(OC(=O)C2CC2)CCC1 | 0.03 µM
